Literature values, collected in patent publication US6942970B2, “Identifying subjects suitable for topoisomerase II inhibitor treatment” (Zymed Laboratories, Inc., priority 2000, dated 2005).

System: advanced breast cancer
Details: first-line chemotherapy, advanced breast cancer patients

In the case of `COc1cccc2c1C(=O)c1c(O)c3c(c(O)c1C2=O)C[C@@](O)(C(=O)CO)C[C@@H]3O[C@H]1C[C@H](N)[C@@H](O)[C@H](C)O1` [epirubicin], the “response rate (CR+PR)” value is given as 48%.
